Where a chain is given by its changes, count along the chain named.

Holding throughout (settings): at 1 µM
Test [1] has as its system T1, Receptor-type tyrosine-protein kinase FLT3 (Homo sapiens), P36888 [R834Q].
T1 sequence (whole entry): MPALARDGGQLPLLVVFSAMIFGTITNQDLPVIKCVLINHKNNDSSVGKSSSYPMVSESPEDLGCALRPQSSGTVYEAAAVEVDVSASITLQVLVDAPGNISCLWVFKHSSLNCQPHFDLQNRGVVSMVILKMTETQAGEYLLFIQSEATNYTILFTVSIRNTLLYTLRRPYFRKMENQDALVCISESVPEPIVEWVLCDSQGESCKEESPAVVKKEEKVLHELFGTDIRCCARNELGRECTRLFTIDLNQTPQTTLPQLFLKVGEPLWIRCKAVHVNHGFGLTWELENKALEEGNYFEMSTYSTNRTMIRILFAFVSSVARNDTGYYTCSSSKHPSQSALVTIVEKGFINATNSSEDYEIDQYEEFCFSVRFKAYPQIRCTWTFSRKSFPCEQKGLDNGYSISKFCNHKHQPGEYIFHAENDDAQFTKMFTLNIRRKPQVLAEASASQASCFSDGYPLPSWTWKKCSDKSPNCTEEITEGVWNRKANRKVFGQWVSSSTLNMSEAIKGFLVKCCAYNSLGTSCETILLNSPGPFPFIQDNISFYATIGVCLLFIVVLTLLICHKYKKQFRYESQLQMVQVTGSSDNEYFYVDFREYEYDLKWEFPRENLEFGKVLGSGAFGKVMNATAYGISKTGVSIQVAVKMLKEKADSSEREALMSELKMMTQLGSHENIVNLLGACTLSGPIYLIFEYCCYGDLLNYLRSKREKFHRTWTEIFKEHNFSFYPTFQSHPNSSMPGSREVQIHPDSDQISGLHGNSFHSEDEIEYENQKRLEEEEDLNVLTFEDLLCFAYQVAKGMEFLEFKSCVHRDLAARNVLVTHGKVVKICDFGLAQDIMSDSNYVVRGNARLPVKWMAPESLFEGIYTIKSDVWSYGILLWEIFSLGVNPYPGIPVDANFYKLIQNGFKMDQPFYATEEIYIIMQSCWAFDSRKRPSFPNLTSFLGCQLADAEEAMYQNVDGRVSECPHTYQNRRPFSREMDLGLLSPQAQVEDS
Nature of the test: (§1) Selectivity interaction (KinomeScan (DiscoverX)) EUB0001079a FLT3.

Test [2] concerns T2, Receptor-type tyrosine-protein kinase FLT3 (Homo sapiens), P36888 [N841I].
T2 sequence (whole entry): T1 sequence (whole entry) with Q834R, N841I
Described as §1.

Test [3] deals with T3, Receptor-type tyrosine-protein kinase FLT3 (Homo sapiens), P36888 [D835Y].
T3 sequence (whole entry): T1 sequence (whole entry) with Q834R, D835Y
The test is described as §1.

For `Nc1cnc(N2CCc3cc(S(=O)(=O)Nc4c(F)cc(Cl)cc4F)cc(N4CCCC4=O)c32)nc1` [TP-020n], the % of control in test [1] was determined as 77%; in test [2], 89%; in test [3], 100%.

(Values after ChEMBL document CHEMBL5465560, “Selectivity Literature for EUbOPEN Chemogenomic Library” (2024).)
